These results are taken from patent US20120258170A1, “PHARMACEUTICAL CO-CRYSTALS OF QUERCETIN” (Nutracryst Therapeutics Private Limited, priority 2009, published 2012).

The test system of data set [1] is db/db mice. Nature of the data set: Acute effect of test compounds on plasma glucose levels in db/db mice. The conditions noted are these: Mean ± SEM. It is filed as in vivo. How it is done:
(§1) Db/db mice were acclimatized to dosing and exposed to tail cut and r.o.p bleeding. Animals were grouped based on plasma glucose, triglyceride and cholesterol values. Acute effect of test compound on plasma glucose levels determined 3 hrs post dosing followed by administration of test compound for 21 days. After 14 days treatment, 4 hrs fasting plasma glucose levels were measured. After 21 days treatment, 4 hrs fasting plasma glucose levels were measured followed by test compound administration and measurement of plasma glucose levels 3 hrs post dosing.
(§2) Kits: Plasma glucose, cholesterol and triglyceride were measured using Dade Behring auto analyzer. Plasma insulin values measured using Rat/mouse insulin ELISA kit (Millipore, lot no 16006280). Tail cut method plasma glucose values measured using Contour TS glucometer strips (Lot WK8MD3E32A).
(§3) Compounds and Vehicle: All test-compounds were formulated in tween CMC (10% of 2.5% tween 80+90% of 0.25% CMC) and prepared daily about 1 hr before administration. Animals were dosed for 21 days through oral gavage at dose volume of 10 ml/kg body weight.
On the day of initiating study animals were fasted for 4 hrs and plasma glucose was measured with Glucometer by tail cut method. Animals were dosed with test compound/vehicle according to their body weight and 3 hrs post dosing plasma glucose levels were measured with Glucometer Immediately animals were provided with measured amount of feed.
Acute effect percent reduction in PG was calculated for each animal using the formula
{(0 hr PG−test hr PG)/0 hr PG}×100
(§4) Statistics were applied using One-Way ANOVA followed by Dunnett's test using sigma stat software.

The test system of data set [2] is db/db mice. The data set is described as follows: Chronic effect (21 days) on plasma glucose 3 hrs post dosing in db/db mice. It is filed as in vivo. The conditions noted are these: 21 days 300 mg/kg once daily, then dose, 3 hrs post dosing. The procedure:
as §1, §2, §3
(§5) Animals were dosed daily at around 10 AM to 11 AM with corresponding test compounds/vehicle at a volume of 10 ml/kg of body weight. Body weight, water intake and food intake was measured daily. After 14 days treatment plasma profile (PG, TG & TC) was measured in 4 hrs fasted animals. On that day animals were dosed post bleeding after keeping feed at 4 PM. After 21 days treatment plasma profile (PG, TG & TC) was measured in 4 hrs fasted animals. After bleeding, animals were administered with test compounds/vehicle and plasma glucose was measured 3 hrs post dosing with Glucometer. Immediately animals were provided with feed.
(§6) The percent reduction in plasma profile parameters were calculated using the formula 1−(tt/tc)/bt/bc)×100; where tt: test day treated group mean value of the parameter; tc: test day control group mean value of the parameter; bc: Basal Control group mean value; bt: Basal treated group mean value.
as §4

Data set [3] has as its system db/db mice. Nature of the data set: Chronic effect on plasma profile (PG, TC, TG), 4 hrs fasted, before dosing, in db/db mice. In kind it is in vivo. The procedure: as §1, §2, §3, §5
(§7) Blood samples from r.o.p bleeding were collected in micro centrifuge tubes containing 5 ul of EDTA Na ([…]). Plasma separated by centrifuging blood samples at 6000 rpm at 40 C for 5 minutes. Plasma glucose, total cholesterol and triglyceride were measured using Dade Bhering auto analyser. Plasma insulin was measured (in duplicate samples), using Millipore mouse/rat insulin ELISA kit.
as §6, §4

Data set [4] in a line: Chronic effect on body weight in db/db mice. It is filed as in vivo. The conditions noted are these: Mean ± SEM. The procedure:
as §3, §5, §4

Data set [5] concerns db/db mice. The data set is described as follows: Chronic effect on plasma insulin levels in db/db mice. In kind it is in vivo. The procedure:
as §2, §3, §5, §7, §6, §4

The conditions of data set [6]: cited from earlier work.
Where [7] appears, read: 14 days 300 mg/kg once daily per oral, 4 hr fasting, pre dosing.
Where [8] appears, read: 14 days 300 mg/kg once daily, adjusted for control and basal.
Where [9] appears, read: 21 days 300 mg/kg once daily per oral, 4 hr fasting, predosing.
The mark [10] stands for this setting: 21 days 300 mg/kg once daily, post 4 hrs fasting, without dosing on the day.
Where [11] appears, read: basal, 4 hrs fasted, before treatment, Mean ± SEM.

Turning to `O.O.O=c1c(O)c(-c2ccc(O)c(O)c2)oc2cc(O)cc(O)c12` [ILB-MCO-0904Q, Quercetin dihydrate], the “% Reduction in plasma glucose (acute)” value in data set [1] (0 hr vs 3 hr post single dose 300 mg/kg per oral) amounted to 31 ± 4%. Further, the “3 Hr plasma glucose” value in data set [1] (3 hrs post single dose 300 mg/kg per oral) came to 293 ± 65 mg/dL. Further, in data set [1] (4 hrs fasted, before dosing, 300 mg/kg per oral group), the “0 Hr plasma glucose” value was found to be 398 ± 67 mg/dL. The “% Red PG, 21th day 3 hr post dosing” value in data set [2] is 4%. Also, in data set [2] (Mean ± SEM), the “21th day 3 hr post dosing PG” value stood at 345 ± 41 mg/dL. For the same molecule, the “effect on plasma glucose levels with acute or chronic administration (in words)” value in data set [3] (300 mg/kg) is on record as “Did not show significant effect”. In addition, in data set [3] (setting [7]), the “14th day PG” value was determined as 476.41 ± 45.57 mg/dL, the “14th day TC” value amounted to 154.43 ± 6.50 mg/dL and the “14th day TG” value is 129.08 ± 5.61 mg/dL. Besides, in data set [3] (setting [8]), the “% Red PG, 14th day” value is recorded as −4%; the “% Red TC, 14th day” value is −1%; the “% Red TG, 14th day” value worked out at 8%. In addition, in data set [3] (setting [9]), the “21st day PG” value stood at 432.69 ± 42.38 mg/dL, the “21st day TC” value came out at 151.25 ± 4.93 mg/dL and the “21st day TG” value came to 141.99 ± 8.25 mg/dL. Also, the “% Red PG, 21st day” value in data set [3] (21 days 300 mg/kg once daily, adjusted for control and basal) worked out at 0%. In data set [3] (setting [10]), the “% Red TC (plasma cholesterol), 21st day” value is 15% and the “% Red TG (plasma triglyceride), 21st day” value is given as 21%. For the same molecule, in data set [3] (setting [11]), the “Basal PG” value came to 402.50 ± 26.82 mg/dL, the “Basal TC” value worked out at 156.25 ± 4.53 mg/dL and the “Basal TG” value was found to be 138.00 ± 8.04 mg/dL. For the same molecule, the Final day Body weight in data set [4] (after 21 days 300 mg/kg once daily) amounted to 44.6 ± 1.3 g. The “% Increase in body weight” value in data set [4] (basal to final day) is given as 12.2 ± 2.3%. This molecule gave a Basal Body weight in data set [4] (basal) of 39.1 ± 1.2 g. Besides, in data set [5] (21th day, calculated after adjusting for control group change), the “% Reduction@ in plasma insulin” value was 18%. This molecule yielded a 21th day insulin in data set [5] (21 days 300 mg/kg once daily, 4 hr fasting, predosing) of 2.90 ± 0.33 ng/mL. Further, the “% Reduction in plasma insulin” value in data set [5] (basal vs 21th day, Mean ± SEM) worked out at 0.29 ± 9.87%. This molecule registered a Basal insulin in data set [5] (basal, before treatment, Mean ± SEM) of 2.94 ± 0.20 ng/mL.
Turning to `N[C@@H](CC(=O)N1CCn2c(nnc2C(F)(F)F)C1)Cc1cc(F)c(F)cc1F` [Sitagliptin], in data set [6], the Bioavailability is reported as 87% and the “Half Life” value was 8 to 14 h.
